Reference: article PMC9368981, “The γ-Core Motif Peptides of AMPs from Grasses Display Inhibitory Activity against Human and Plant Pathogens” (International Journal of Molecular Sciences, 2022)
Where a SMILES comes first, the peptide text is derived from it.

Assays:
[1] = tested on: F. verticillioides VKM F-670; assay type: cell-based, Fusarium verticillioides
Experimental: (§1) The antimicrobial activity of synthetic peptides was tested against a panel of human and plant pathogens. Among them were the yeasts Candida albicans VKM Y-2994 and Cryptococcus neoformans VKM Y-2755, the plant pathogenic bacteria Clavibacter michiganensis subsp. michiganensis VKM Ac-1403, Pseudomonas savastanoi pv. savastanoi VKM B-1546 and Pectobacterium carotovorum subsp. carotovorum VKM B-1247, and four Fusarium species (F. oxysporum VKM F-137, F. culmorum VKM F-2303, F. solani VKM F-142 and F. verticillioides VKM F-670), which cause diseases in plants and humans. The antimicrobial activity was first measured at the peptide concentration of 300 µM (Figure 3).
(§2) The antimicrobial activity of synthetic peptides was tested against the yeasts Candida albicans VKM Y-2994 and Cryptococcus neoformans VKM Y-2755, the bacteria Pseudomonas savastanoi pv. savastanoi VKM B-1546, Pectobacterium carotovorum subsp. carotovorum VKM B-1247 and Clavibacter michiganensis subsp. michiganensis VKM Ac-1403, and four Fusarium species: F. culmorum VKM F-2303, F. oxysporum VKM F-137, F. solani VKM F-142 and F. verticillioides VKM F-670. All cultures were obtained from the All-Russian Collection of Microorganisms (VKM). The details of the production and storage of cultures of microorganisms used in this study are described at the VKM Home page. Antimicrobial assays were accomplished according to the procedure described earlier. In short, yeasts were grown on the YPD-P medium and the bacteria P. carotovorum and Cl. michiganensis were cultured on a modified YPD-P medium. The Fusarium fungi were grown on potato dextrose agar at 25 °C for 7–8 days, and spores were washed off from the surface of the mycelia with sterile, distilled water. The antimicrobial activity of the peptides was measured in immunoassay microtiter plates according to the protocol of Broekaert et al.. With yeasts and bacteria, each well contained 10 µL of the tested peptide solution (final concentrations of 10–300 µM) in water, 80 µL of the medium and 10 µL of the microbial suspension. The plates were incubated at 30 °C for 24 h, and the absorbance of the suspension was measured on an Efos 9305 spectrophotometer (Sapphire, Moscow, Russia) at 594 nm. For Fusarium species, the wells of a microtiter plate were filled with 90 µL of the fungal spore suspension in half-strength potato dextrose broth at a concentration of 2000–3000 spores in 100 µL and 10 µL of aqueous solutions of peptides at final concentrations of 10–300 µM. After 38 h of incubation, the absorbance was recorded at 595 nm on a FilterMax F5 Multi-Mode Microplate Reader (Molecular Devices, San Jose, CA, USA). Antimicrobial activity is expressed in IC50 values, which show the concentration necessary for 50% inhibition of the pathogen growth; this was determined from a graph showing the activity dependence on peptide concentration.
(§3) For each pathogen, experiments on the peptide antimicrobial activity evaluation were carried out in triplicate per treatment. Mean values, standard deviations (SD), and the significance of differences (p ≤ 0.05) of the means between treatments and controls (t-test for independent variables) were determined using STATISTICA v. 6.1 software (StatSoft Inc., Tulsa, OK, USA).

[2] = tested on: Candida albicans VKM Y-2994; assay type: cell-based
Experimental: as §1, §2, §3

[3] = tested on: Cryptococcus neoformans VKM Y-2755; assay type: cell-based
Experimental: as §1, §2, §3

[4] = tested on: Pseudomonas savastanoi pv. savastanoi VKM B-1546; assay type: cell-based; details: peptide 10–300 µM, 30 °C, 24 h, absorbance 594 nm; from activity vs concentration graph; mean ± SD; read-out: IC50, μM Ps. savastanoi
Experimental: as §1, §2, §3

[5] = tested on: Pectobacterium carotovorum subsp. carotovorum VKM B-1247; details: 300 µM peptide; modified YPD-P medium, 30 °C, 24 h, absorbance 594 nm; vs control without peptide; triplicate, mean
Experimental: All cultures were obtained from the All-Russian Collection of Microorganisms (VKM).
Mean values, standard deviations (SD), and the significance of differences (p ≤ 0.05) of the means between treatments and controls (t-test for independent variables) were determined using […] v. 6.1 software (StatSoft Inc., Tulsa, OK, USA).

Cr. neoformans cells [6] = assay: Propidium iodide penetration, flow cytometry; assay type: cell-based, Cryptococcus neoformans; details: 28 °C, 2 h
Experimental: (§4) Their ability to disturb the integrity of pathogen membranes was assayed by staining with propidium iodide of C. albicans and Cr. neoformans cells preliminarily incubated with the peptides. The results were visualized by fluorescent microscopy and quantified by flow cytometry (Figure 5, Figure 6 and Figure 7).
For flow cytometry experiments with Cr. neoformans, the yeasts were grown on the YPD medium at 28 °C for 48 h. After that, the cells were centrifuged at 12,000× g for 3 min, washed with MiliQ water and incubated with the peptides dissolved in water at a concentration of 300 µM at 28 °C for 2 h. The cells were stained with propidium iodide by direct addition of the dye to the incubation medium (final concentration of 2 µg/mL) and measured on a NovoCyte Flow cytometer (Agilent, Santa Clara, CA, USA) using the channel FL2 (488 nm excitation and 585 nm emission). The sample without peptides was used as a control.

Cr. neoformans cells [7] = assay: Propidium iodide staining, fluorescence microscopy; assay type: cell-based, Cryptococcus neoformans; details: peptide 300 µM, 30 °C, 1 h, 0.03 mM PI 15 min
Experimental: as §4
(§5) Staining of yeast cells with propidium iodide in the presence of the γ-core peptides was carried out according to the protocol described earlier. C. albicans or Cr. neoformans cells (24 h culture in YPD-P at a cell concentration of 2 × 10^8/mL) were incubated with the peptide at a concentration of 300 µM at 30 °C for 1 h. After incubation, 1 mL of the cells was stained with 0.03 mM propidium iodide (Sigma, St. Louis, MO, USA). The staining proceeded for 15 min at 30 °C. The fluorescence was recorded on an AXIO Imager A1 fluorescence microscope (ZEISS, Göttingen, Germany) using a Zeiss filter set 56 HE.

C. albicans cells = assay: Propidium iodide staining, fluorescence microscopy; assay type: cell-based, Candida albicans; details: peptide 300 µM, 30 °C, 1 h, 0.03 mM PI 15 min
Experimental: as §4, §5

[8] = tested on: Clavibacter michiganensis subsp. michiganensis VKM Ac-1403; assay: Growth inhibition of Cl. michiganensis in microtiter plates; assay type: cell-based; details: inhibition curves (Figure 4); highest tested concentration of 300 µM
Experimental: as §1
The antimicrobial activity of synthetic peptides was tested against the yeasts Candida albicans VKM Y-2994 and Cryptococcus neoformans VKM Y-2755, the bacteria Pseudomonas savastanoi pv. savastanoi VKM B-1546, Pectobacterium carotovorum subsp. carotovorum VKM B-1247 and Clavibacter michiganensis subsp. michiganensis VKM Ac-1403, and four Fusarium species: F. culmorum VKM F-2303, F. oxysporum VKM F-137, F. solani VKM F-142 and F. verticillioides VKM F-670. All cultures were obtained from the All-Russian Collection of Microorganisms (VKM). […] The antimicrobial activity of the peptides was measured in immunoassay microtiter plates according to the protocol of Broekaert et al.. […] The plates were incubated at 30 °C for 24 h, and the absorbance of the suspension was measured on an Efos 9305 spectrophotometer (Sapphire, Moscow, Russia) at 594 nm. […] After 38 h of incubation, the absorbance was recorded at 595 nm on a FilterMax F5 Multi-Mode Microplate Reader (Molecular Devices, San Jose, CA, USA). […]
as §3, with “6.1 software (StatSoft Inc., Tulsa, OK, USA).” left out

F. culmorum VKM F-2303 = assay: Growth inhibition of F. culmorum in microtiter plates; assay type: cell-based, Fusarium culmorum; details: 300 µM peptide; spores in half-strength potato dextrose broth, 38 h, absorbance 595 nm; vs control without peptide; triplicate, mean
Experimental: as §1
(§6) The antimicrobial activity of synthetic peptides was tested against the yeasts Candida albicans VKM Y-2994 and Cryptococcus neoformans VKM Y-2755, the bacteria Pseudomonas savastanoi pv. savastanoi VKM B-1546, Pectobacterium carotovorum subsp. carotovorum VKM B-1247 and Clavibacter michiganensis subsp. michiganensis VKM Ac-1403, and four Fusarium species: F. culmorum VKM F-2303, F. oxysporum VKM F-137, F. solani VKM F-142 and F. verticillioides VKM F-670. All cultures were obtained from the All-Russian Collection of Microorganisms (VKM). […] The antimicrobial activity of the peptides was measured in immunoassay microtiter plates according to the protocol of Broekaert et al.. […]

F. oxysporum VKM F-137 = assay: Growth inhibition of F. oxysporum in microtiter plates; assay type: cell-based, Fusarium oxysporum; details: 300 µM peptide; spores in half-strength potato dextrose broth, 38 h, absorbance 595 nm; vs control without peptide; triplicate, mean
Experimental: as §1, §6

F. solani VKM F-142 = assay: Growth inhibition of F. solani in microtiter plates; assay type: cell-based, Fusarium solani; details: 300 µM peptide; spores in half-strength potato dextrose broth, 38 h, absorbance 595 nm; vs control without peptide; triplicate, mean
Experimental: as §1, §6

[9] = inhibition curves (Figure 4), highest tested concentration (300 µM)

C[C@H](NC(=O)[C@H](CCCNC(=N)N)NC(=O)CNC(=O)[C@@H](NC(=O)[C@H](Cc1ccc(O)cc1)NC(=O)[C@@H]1CCCN1C(=O)[C@H](CCCNC(=N)N)NC(=O)CNC(=O)[C@H](CCCNC(=N)N)NC(=O)[C@H](C)NC(=O)[C@@H]1CCCN1C(=O)[C@@H](N)CS)[C@@H](C)O)C(=O)N[C@@H](CS)C(=O)O [DEFL4-37_90-102] (H-CPARGRPYTGRAC-OH; N-terminus and C-terminus assumed)
Maximum inhibition of F. verticillioides at 150 µM ([1]; inhibition curves (Figure 4), peptide 150 µM): about 35%
IC50 ([1]; peptide 10–300 µM, 38 h, absorbance 595 nm, from activity vs concentration graph, mean ± SD): > 100 µM
Inhibition of C. albicans at the highest tested concentration [2, 9]: about 35%
IC50 ([2]; peptide 10–300 µM, 30 °C, 24 h, absorbance 594 nm, from activity vs concentration graph, mean ± SD): > 100 µM
Inhibition of Cr. neoformans at the highest tested concentration [3, 9]: 100%
IC50 ([3]; peptide 10–300 µM, 30 °C, 24 h, absorbance 594 nm, from activity vs concentration graph, mean ± SD, read-out: IC50, μM Cr. neoformans): > 100 µM
IC50 [4]: > 100 µM
Pathogen inhibition, % (P. carotovorum) [5]: 36%
Penetration of propidium iodide (PI) into Cr. neoformans cells (Cr. neoformans cells [6]; peptide 300 µM in water, PI 2 µg/mL, FL2 (488/585 nm)): 68.48%
Number of Cr. neoformans cells in flow cytometry (Cr. neoformans cells [6]; peptide 300 µM): reduction in the number of Cr. neoformans cells
Membrane permeabilization of Cr. neoformans cells (PI staining) (Cr. neoformans cells [7]): induced membrane permeabilization
Membrane permeabilization of C. albicans cells (PI staining) (C. albicans cells): induced membrane permeabilization

CC(C)C[C@H](NC(=O)[C@H](CCCNC(=N)N)NC(=O)[C@H](C)NC(=O)[C@H](CS)NC(=O)[C@H](CS)NC(=O)CNC(=O)[C@@H]1CCCN1)C(=O)N[C@@H](CCCNC(=N)N)C(=O)N[C@@H](C)C(=O)N[C@@H](CCC(N)=O)C(=O)N[C@@H](CCCNC(=N)N)C(=O)N[C@@H](C)C(=O)N[C@@H](CS)C(=O)O [TkLTP2.25_50-62] (H-PGCCARLRAQRAC-OH; N-terminus and C-terminus assumed)
Inhibition of Cl. michiganensis at the highest tested concentration [8]: 95%
Membrane permeabilization of Cr. neoformans cells (PI staining) (Cr. neoformans cells [7]): induced membrane permeabilization
Membrane permeabilization of C. albicans cells (PI staining) (C. albicans cells): induced membrane permeabilization

CC[C@H](C)[C@H](NC(=O)[C@@H](NC(=O)[C@H](Cc1c[nH]cn1)NC(=O)[C@@H](NC(=O)[C@H](C)NC(=O)[C@@H](NC(=O)[C@H](CS)NC(=O)[C@H](CS)NC(=O)CNC(=O)[C@@H](N)CO)[C@@H](C)O)C(C)C)[C@@H](C)O)C(=O)NCC(=O)N[C@@H](CCCCN)C(=O)N[C@@H](CCC(N)=O)C(=O)N[C@@H](CO)C(=O)N1CCC[C@H]1C(=O)N[C@@H](CCCCN)C(=O)N[C@@H](CS)C(=O)O [TkLTPd5.6_59-75] (H-SGCCTAVHTIGKQSPKC-OH; N-terminus and C-terminus assumed)
Pathogen inhibition, % (F. culmorum) (F. culmorum VKM F-2303): inactive
Pathogen inhibition, % (F. oxysporum) (F. oxysporum VKM F-137): inactive
Pathogen inhibition, % (F. solani) (F. solani VKM F-142): inactive
Pathogen inhibition, % (F. verticillioides) ([1]; 300 µM peptide, spores in half-strength potato dextrose broth, 38 h, absorbance 595 nm, vs control without peptide, triplicate, mean): inactive
